According to the supplement of paper PMC5908809:

Tests used:
SNK-6 (IL-2 2.5 ng/mL) [1] = assay: percent inhibition of viability; higher = more inhibition; details: 72 h
KHYG-1 (IL-2 2.5 ng/mL) [2] = assay: as above; details: 72 h
[3] = system: normal primary NK cells, pool 3 (3 donors) (IL-2 2.5 ng/mL); assay: as above; details: 72 h
IMC-1 (IL-2 20 ng/mL) [4] = assay: as above; details: 72 h
NK-92 (IL-2 2.5 ng/mL) [5] = assay: as above; details: 72 h
[6] = system: normal primary NK cells, pool 1 (3 donors) (IL-2 2.5 ng/mL); assay: as above; details: 72 h
NKL (IL-2 2.5 ng/mL) [7] = assay: as above; details: 72 h
[8] = system: normal primary NK cells, pool 1 (3 donors), resting (IL-2 0 ng/mL); assay: as above; details: 72 h
KAI3 (IL-2 2.5 ng/mL) [9] = assay: as above; details: 72 h
NK-YS (IL-2 2.5 ng/mL) [10] = assay: as above; details: 72 h
DERL-7 (IL-2 2.5 ng/mL) [11] = assay: as above; details: 72 h
[12] = system: normal primary NK cells, pool 2 (3 donors) (IL-2 2.5 ng/mL); assay: as above; details: 72 h
YT (IL-2 2.5 ng/mL) [13] = assay: as above; details: 72 h
[14] = system: normal NK cells expanded with K562-aAPC; assay: as above; details: 72 h, IL-2 2.5 ng/mL
Description: (§1)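 Drug sensitivity and resistance testing on K562-aAPC-expanded normal NK cells: 5 concentrations (10-fold steps over a 10,000-fold range), 72 h at 37 °C, viability by CellTiter-Glo normalised to DMSO and benzethonium chloride controls; DSS from the fitted curve.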

[15] = system: normal NK cells expanded with K562-aAPC; assay: drug sensitivity score (DSS) (DSS units); higher = more sensitive; extreme values may be limits of the assay; details: 72 h; IL-2 2.5 ng/mL
Description: as §1

SNK-6 (IL-2 2.5 ng/mL) [16] = assay: as above; details: 72 h
KHYG-1 (IL-2 2.5 ng/mL) [17] = assay: as above; details: 72 h
[18] = system: normal primary NK cells, pool 3 (3 donors) (IL-2 2.5 ng/mL); assay: as above; details: 72 h
IMC-1 (IL-2 20 ng/mL) [19] = assay: as above; details: 72 h
NK-92 (IL-2 2.5 ng/mL) [20] = assay: as above; details: 72 h
[21] = system: normal primary NK cells, pool 1 (3 donors) (IL-2 2.5 ng/mL); assay: as above; details: 72 h
NKL (IL-2 2.5 ng/mL) [22] = assay: as above; details: 72 h
[23] = system: normal primary NK cells, pool 1 (3 donors), resting (IL-2 0 ng/mL); assay: as above; details: 72 h
KAI3 (IL-2 2.5 ng/mL) [24] = assay: as above; details: 72 h
NK-YS (IL-2 2.5 ng/mL) [25] = assay: as above; details: 72 h
DERL-7 (IL-2 2.5 ng/mL) [26] = assay: as above; details: 72 h
[27] = system: normal primary NK cells, pool 2 (3 donors) (IL-2 2.5 ng/mL); assay: as above; details: 72 h
YT (IL-2 2.5 ng/mL) [28] = assay: as above; details: 72 h

CO[C@H]1C[C@@H]2CC[C@@H](C)[C@@](O)(O2)C(=O)C(=O)N2CCCC[C@H]2C(=O)O[C@H]([C@H](C)C[C@@H]2CC[C@@H](OC(=O)C(C)(CO)CO)[C@H](OC)C2)CC(=O)[C@H](C)/C=C(\C)[C@@H](O)[C@@H](OC)C(=O)[C@H](C)C[C@H](C)/C=C/C=C/C=C/1C [Temsirolimus] (max concentration tested 100 nM)
percent inhibition of viability [%]
Details	0.01 nM	0.1 nM	1 nM	10 nM	100 nM
DERL-7 (IL-2 2.5 ng/mL) [11]	0.65	5.41	38.2	53.8	56.5
IMC-1 (IL-2 20 ng/mL) [4]	1.04	2.24	-25.1	-30.5	-23.9
KAI3 (IL-2 2.5 ng/mL) [9]	-1.9	13.1	35.1	48.4	54.7
KHYG-1 (IL-2 2.5 ng/mL) [2]	-0.71	3.41	21.7	58.9	48.8
NK-92 (IL-2 2.5 ng/mL) [5]	-7.3	7.2	12.8	33.5	36.9
NK-YS (IL-2 2.5 ng/mL) [10]	-1.82	16.2	44.5	54.4	59
NKL (IL-2 2.5 ng/mL) [7]	5.4	32.6	52	59.1	58.7
SNK-6 (IL-2 2.5 ng/mL) [1]	4.31	14	45.6	56	55.2
YT (IL-2 2.5 ng/mL) [13]	0.8	5.67	35.9	50.6	55.3
[3]	-9.23	-18.3	1.68	12.1	12.8
[6]	-5.13	4.99	6.83	10.7	11.2
[8]	-13.5	-0.02	6.4	10.2	4.95
[12]	-13.6	-11.5	7.96	18.8	14.9
[14]	0.06	1.82	7.35	7.61	23.3

Details	drug sensitivity score
DERL-7 (IL-2 2.5 ng/mL) [26]	15.1
IMC-1 (IL-2 20 ng/mL) [19]	0
KAI3 (IL-2 2.5 ng/mL) [24]	14.2
KHYG-1 (IL-2 2.5 ng/mL) [17]	13.4
NK-92 (IL-2 2.5 ng/mL) [20]	7.04
NK-YS (IL-2 2.5 ng/mL) [25]	17.4
NKL (IL-2 2.5 ng/mL) [22]	21.6
SNK-6 (IL-2 2.5 ng/mL) [16]	17.2
YT (IL-2 2.5 ng/mL) [28]	14.4
[15]	1.25
[18]	0.84
[21]	0.28
[23]	0.07
[27]	3.24

COc1cc([C@@H]2c3cc4c(cc3[C@@H](O[C@@H]3O[C@@H]5CO[C@@H](c6cccs6)O[C@H]5[C@H](O)[C@H]3O)[C@H]3COC(=O)[C@H]23)OCO4)cc(OC)c1O [Teniposide] (max concentration tested 10000 nM)
percent inhibition of viability [%]
Details	1 nM	10 nM	100 nM	1000 nM	10000 nM
DERL-7 (IL-2 2.5 ng/mL) [11]	5.54	34.5	94.9	80.3	99.3
IMC-1 (IL-2 20 ng/mL) [4]	-1.21	18.8	95.9	99.6	99
KAI3 (IL-2 2.5 ng/mL) [9]	-5.63	32.8	80.1	75.3	92.2
KHYG-1 (IL-2 2.5 ng/mL) [2]	1.47	13.1	91.5	102	94.4
NK-92 (IL-2 2.5 ng/mL) [5]	-21.1	0.94	59.8	99.7	90.3
NK-YS (IL-2 2.5 ng/mL) [10]	4.54	29.4	82.5	79.9	75.7
NKL (IL-2 2.5 ng/mL) [7]	0.79	49.3	98.3	98.7	89.8
SNK-6 (IL-2 2.5 ng/mL) [1]	5.23	16.8	78.2	95.8	94.7
YT (IL-2 2.5 ng/mL) [13]	0.75	-4.25	36.1	95.3	91.5
[3]	-13.8	-4.37	3.23	36.7	97
[6]	2.23	-5.23	11.2	66.3	96.6
[8]	-23.6	-9.41	27.9	90.8	91.2
[12]	-11.9	-5.76	2.6	48.4	93.9
[14]	-1.49	7.42	51.3	59.8	99.4

Details	drug sensitivity score
DERL-7 (IL-2 2.5 ng/mL) [26]	33.5
IMC-1 (IL-2 20 ng/mL) [19]	32.6
KAI3 (IL-2 2.5 ng/mL) [24]	29.9
KHYG-1 (IL-2 2.5 ng/mL) [17]	30.9
NK-92 (IL-2 2.5 ng/mL) [20]	25
NK-YS (IL-2 2.5 ng/mL) [25]	29.3
NKL (IL-2 2.5 ng/mL) [22]	36.2
SNK-6 (IL-2 2.5 ng/mL) [16]	28.5
YT (IL-2 2.5 ng/mL) [28]	22.1
[15]	18.8
[18]	10.1
[21]	14
[23]	20.6
[27]	11
